Experimental data published in patent US10221168B1, “Small-compound enhancers for functional O-mannosylation of alpha-dystroglycan, and uses thereof” (priority 2015, dated 2019).

Each compound was assayed on FOG of α-DG on the cell surfaces (assay: Cell-based HTS/HCS assay, IIH6 antibody as probe (EC1.5)). Conditions: concentration of the compound required to enhance the FOG of α-DG by 50% over the controls; cell-based assays in vitro.
From the text: Protein glycosylation is a multiple-step process that requires a large number of proteins in the secretory pathway of the cells. Thus we chose cell-based assay because our goal is to identify enhancer the FOG of α-DG on the cell surfaces. The assay system is HTS/HCS friendly and can adapt to various cell lines including myotubes as well as various readout methods including AlphaScreen, fluorescence density and HCS/fluorescence imaging. The standard operation protocol (SOP) for adhesion cells is described below and the FIG. 1 illustrates the assay process using myoblasts as the controls and screening cells and the IIH6 antibody as the probe. Other adhesion cells such CHO (Chinese hamster ovary) cell line can be implemented into this assay by simply removing the differentiation step.
Cell cultures: All cells are cultured at 37° C., 5% CO2, in appropriate media (F-12 for epithelial cells and DMEM for myoblasts) supplement with 10-20% fetal calf serum (FCS) and 1% antibiotics. […] The cells will be detached with trypsin EDTA and suspended in the cell culture media. The cells will be counted and seeded into the multiple-well plates as desired. Myotubes formation: When the myoblasts reach confluence, change the growth media to differential media (DEME with 2% horse serum) and incubate for 4-5 days.
The cells were fixed, permeablized, and then blocked with 10% BSA in PBS for 1 hour. […] After washing the cells with PBS for 2 times, the DAPI was used to stain the cells for 15 mins and wash 3 times with PBS. The images were captured with an inverted Olympus fluorescent microscope. For small compound localization experiment, the cells are incubated with the biotin conjugated compounds and then the cells were washed and incubated with streptavidin-Dye and then images will be captured to see the location of the compound-target-protein.
H, EC1.5<5 μM; M, EC1.5-20 μM; L, EC1.5 20-50 μM; VL, EC1.5>50 μM.

Structure (SMILES)	Activity (EC1.5)
CCC(c1nnnn1Cc1cccs1)N1CCN(c2nc3ccc(C(=O)O)cc3s2)CC1 (stereo not shown) [Compound 32, 2-(4-(1-(1-(thiophen-2-ylmethyl)-1H-tetrazol-5-yl)propyl)piperazin-1-yl)benzothiazole-6-carboxylic acid]	L (EC1.5 20-50 μM)
O=C(c1nnnn1Cc1cccs1)N1CCN(c2nc3cccc(F)c3s2)CC1 [Compound 33, (4-(7-fluorobenzothiazol-2-yl)piperazin-1-yl)(1-(thiophen-2-ylmethyl)-1H-tetrazol-5-yl)methanone]	L (EC1.5 20-50 μM)
CCC(c1nnnn1Cc1cccs1)N1CCN(c2nc3cccc(Br)c3s2)CC1 (stereo not shown) [Compound 34, 7-bromo-2-(4-(1-(1-(thiophen-2-ylmethyl)-1H-tetrazol-5-yl)propyl)piperazin-1-yl)benzothiazole]	L (EC1.5 20-50 μM)
CCC(c1nnnn1Cc1cccs1)N1CCN(c2nc3cccc(C(=O)OC)c3s2)CC1 (stereo not shown) [Compound 35, Methyl 2-(4-(1-(1-(thiophen-2-ylmethyl)-1H-tetrazol-5-yl)propyl)piperazin-1-yl)benzothiazole-7-carboxylate]	L (EC1.5 20-50 μM)
CCC(c1nnnn1Cc1cccs1)N1CCN(c2nc3cccc(C(=O)O)c3s2)CC1 (stereo not shown) [Compound 36, 2-(4-(1-(1-(thiophen-2-ylmethyl)-1H-tetrazol-5-yl)propyl)piperazin-1-yl)benzothiazole-7-carboxylic acid]	L (EC1.5 20-50 μM)
CCC(c1nnnn1Cc1cccs1)N1CCN(c2nc3cccc(O)c3s2)CC1 (stereo not shown) [Compound 37, 7-hydroxyl-2-(4-(1-(1-(thiophen-2-ylmethyl)-1H-tetrazol-5-yl)propyl)piperazin-1-yl)benzothiazole]	L (EC1.5 20-50 μM)
CCC(C(=O)NCc1cccs1)c1ccc(-c2nc3ccccc3s2)cc1 (stereo not shown) [Compound 38, 2-(4-(benzothiazol-2yl)phenyl)-N-(thiophen-2-ylmethyl)butanamide]	M (EC1.5-20 μM)
CCC(C(=S)NCc1cccs1)c1ccc(-c2nc3ccccc3s2)cc1 (stereo not shown) [Compound 39, 2-(4-(benzothiazol-2-yl)phenyl)-N-(thiophen-2-ylmethyl)butanethioamide]	M (EC1.5-20 μM)
CCC(c1ccc(-c2nc3ccccc3s2)cc1)c1nnnn1Cc1cccs1 (stereo not shown) [Compound 40, 2-(4-(1-(1-(thiophen-2-ylmethyl)-1H-tetrazol-5-yl)propyl)phenyl)benzothiazole]	M (EC1.5-20 μM)
CCC(c1nnnn1CCc1cccs1)N1CCN(c2nc3cccc(F)c3s2)CC1 (stereo not shown) [Compound 41, 7-fluoro-2-(4-(1-(1-(2-(thiophen-2-yl)ethyl)-1H-tetrazol-5-yl)propyl)piperazin-1-yl)benzothiazole]	L (EC1.5 20-50 μM)
CCC(c1nnnn1Cc1cncs1)N1CCN(c2nc3cccc(F)c3s2)CC1 (stereo not shown) [Compound 42, 7-fluoro-2-(4-(1-(1-(thiazol-5-ylmethyl)-1H-tetrazol-5-yl)propyl)piperazin-1-yl)benzothiazole]	L (EC1.5 20-50 μM)
CCC(c1nnnn1Cc1cccs1)N1CCN(Cc2nc3ccccc3s2)CC1 (stereo not shown) [Compound 43, 2-((4-(1-(1-(thiophen-2-ylmethyl)-1H-tetrazol-5-yl)propyl)piperazin-1-yl)methyl)benzothiazole]	L (EC1.5 20-50 μM)
CCC(c1nnnn1Cc1cccs1)N1CCN(c2nc3c(F)cc(F)cc3s2)CC1 (stereo not shown) [Compound 44, 4,6-difluoro-2-(4-(1-(1-(thiophen-2-ylmethyl)-1H-tetrazol-5-yl)propyl)piperazin-1-yl)benzothiazole]	M (EC1.5-20 μM)
CCC(c1nnnn1Cc1cccs1)N1CCN(c2nc3cc([N+](=O)[O-])cc(F)c3s2)CC1 (stereo not shown) [Compound 45, 7-fluoro-5-nitro-2-(4-(1-(1-(thiophen-2-ylmethyl)-1H-tetrazol-5-yl)propyl)piperazin-1-yl)benzothiazole]	L (EC1.5 20-50 μM)
CCC(c1nnnn1Cc1cccs1)N1CCN(c2nc3c(F)c(N)ccc3s2)CC1 (stereo not shown) [Compound 47, 5-amino-4-fluoro-2-(4-(1-(1-(thiophen-2-ylmethyl)-1H-tetrazol-5-yl)propyl)piperazin-1-yl)benzothiazole]	H (EC1.5<5 μM)
CCC(c1nnnn1Cc1cccs1)N1CCN(c2nc3c(F)c(N)cc(F)c3s2)CC1 (stereo not shown) [Compound 48, 5-amino-4,7-difluoro-2-(4-(1-(1-(thiophen-2-ylmethyl)-1H-tetrazol-5-yl)propyl)piperazin-1-yl)benzothiazole]	H (EC1.5<5 μM)
CCC(c1nnnn1Cc1cccs1)N1CCN(c2nc3ccc(N)c(F)c3s2)CC1 (stereo not shown) [Compound 49, 6-amino-7-fluoro-2-(4-(1-(1-(thiophen-2-ylmethyl)-1H-tetrazol-5-yl)propyl)piperazin-1-yl)benzothiazole]	H (EC1.5<5 μM)
CCC(c1nnnn1Cc1cccs1)N1CCN(c2nc3c(F)cc(N)cc3s2)CC1 (stereo not shown) [Compound 50, 6-amino-4-fluoro-2-(4-(1-(1-(thiophen-2-ylmethyl)-1H-tetrazol-5-yl)propyl)piperazin-1-yl)benzothiazole]	H (EC1.5<5 μM)
CCC(c1nnnn1Cc1cccs1)N1CCN(c2nc3c(F)cc(N)c(F)c3s2)CC1 (stereo not shown) [Compound 51, 6-amino-4,7-difluoro-2-(4-(1-(1-(thiophen-2-ylmethyl)-1H-tetrazol-5-yl)propyl)piperazin-1-yl)benzothiazole]	H (EC1.5<5 μM)
CCC(c1nnnn1Cc1cccs1)N1CCN(c2nc3c(F)c(N)c(N)c(F)c3s2)CC1 (stereo not shown) [Compound 52, 5,6-diamino-4,7-difluoro-2-(4-(1-(1-(thiophen-2-ylmethyl)-1H-tetrazol-5-yl)propyl)piperazin-1-yl)benzothiazole]	H (EC1.5<5 μM)
CCC(c1nnnn1CCc1cccs1)N1CCN(c2nc3cc(N)c(N)cc3s2)CC1 (stereo not shown) [Compound 53, 5,6-diamino-2-(4-(1-(1-(thiophen-2-ylethyl)-1H-tetrazol-5-yl)propyl)piperazin-1-yl)benzothiazole]	H (EC1.5<5 μM)
CCC(c1nnnn1Cc1cccs1)N1CCN(c2nc3cc(N)c(N)cc3s2)CC1 (stereo not shown) [Compound 54, 5,6-diamino-2-(4-(1-(1-(thiophen-2-ylmethyl)-1H-tetrazol-5-yl)propyl)piperazin-1-yl)benzothiazole]	H (EC1.5<5 μM)
CCC(c1nnnn1CCc1cccs1)N1CCN(c2nc3cc(N)cc(F)c3s2)CC1 (stereo not shown) [Compound 55, 5-amino-7-fluoro-2-(4-(1-(1-(thiophen-2-ylethyl)-1H-tetrazol-5-yl)propyl)piperazin-1-yl)benzothiazole]	H (EC1.5<5 μM)
CCC(c1nnnn1Cc1ccc(C)s1)N1CCN(c2nc3cc(N)cc(F)c3s2)CC1 (stereo not shown) [Compound 56, 5-amino-7-fluoro-2-(4-(1-(1-(5-methyl-thiophen-2-ylmethyl)-1H-tetrazol-5-yl)propyl)piperazin-1-yl)benzothiazole]	H (EC1.5<5 μM)
CCC(c1nnnn1Cc1ccc(F)s1)N1CCN(c2nc3cc(N)cc(F)c3s2)CC1 (stereo not shown) [Compound 57, 5-amino-7-fluoro-2-(4-(1-(1-(5-fluoro-thiophen-2-ylmethyl)-1H-tetrazol-5-yl)propyl)piperazin-1-yl)benzothiazole]	H (EC1.5<5 μM)
